Biological target: T1, recombinant human Meningioma Expressed Antigen 5 (MGEA5), also referred to as O-GlcNAcase (OGA) (Homo sapiens, UniProt O60502)
T1 construct: Full length OGA enzyme was purchased at OriGene (cat #TP322411); purchased OriGene TP322411
T1 sequence (O60502 1-916): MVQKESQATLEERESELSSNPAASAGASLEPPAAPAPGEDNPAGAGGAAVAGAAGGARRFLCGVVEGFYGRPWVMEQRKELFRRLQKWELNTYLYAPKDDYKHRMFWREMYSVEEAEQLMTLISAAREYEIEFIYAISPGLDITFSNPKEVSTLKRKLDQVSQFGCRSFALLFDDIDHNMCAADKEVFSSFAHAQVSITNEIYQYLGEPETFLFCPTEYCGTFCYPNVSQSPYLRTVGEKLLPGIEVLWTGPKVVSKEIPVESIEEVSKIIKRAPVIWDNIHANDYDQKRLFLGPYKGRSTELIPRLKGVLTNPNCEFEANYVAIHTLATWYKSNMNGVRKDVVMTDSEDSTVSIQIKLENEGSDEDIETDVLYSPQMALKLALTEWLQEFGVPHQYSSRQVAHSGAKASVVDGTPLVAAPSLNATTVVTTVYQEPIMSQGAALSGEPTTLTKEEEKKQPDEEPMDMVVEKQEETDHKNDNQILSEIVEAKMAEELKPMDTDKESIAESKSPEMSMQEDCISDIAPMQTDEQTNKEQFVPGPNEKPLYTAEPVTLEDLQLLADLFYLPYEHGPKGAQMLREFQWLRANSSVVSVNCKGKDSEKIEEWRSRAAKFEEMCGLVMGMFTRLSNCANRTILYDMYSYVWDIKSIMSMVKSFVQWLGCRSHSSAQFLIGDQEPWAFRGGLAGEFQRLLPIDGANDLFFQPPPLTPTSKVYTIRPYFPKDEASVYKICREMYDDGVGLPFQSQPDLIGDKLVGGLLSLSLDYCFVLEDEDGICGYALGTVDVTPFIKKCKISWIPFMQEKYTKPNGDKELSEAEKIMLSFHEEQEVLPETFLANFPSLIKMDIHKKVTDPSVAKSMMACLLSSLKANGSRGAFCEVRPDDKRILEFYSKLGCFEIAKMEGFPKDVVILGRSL
Assay: OGA biochemical assay (inhibition of FM-GlcNAc hydrolysis, fluorescence)
Details: FM-GlcNAc substrate, 6 h at room temperature, read-out: Enzymatic hOGA, pIC50 (converted)
From the text: The assay is based on the inhibition of the hydrolysis of fluorescein mono-β-D-N-Acetyl-Glucosamine (FM-GlcNAc) (Mariappa et al. 2015, Biochem J 470:255) by the recombinant human Meningioma Expressed Antigen 5 (MGEA5), also referred to as O-GlcNAcase (OGA). The hydrolysis FM-GlcNAc (Marker Gene technologies, cat #M1485) results in the formation of β-D-N-glucosamineacetate and fluorescein. The fluorescence of the latter can be measured at excitation wavelength 485 nm and emission wavelength 538 nm. An increase in enzyme activity results in an increase in fluorescence signal. Full length OGA enzyme was purchased at OriGene (cat #TP322411). The enzyme was stored in 25 mM Tris.HCl, pH 7.3, 100 mM glycine, 10% glycerol at −20° C. Thiamet G and GlcNAcStatin were tested as reference compounds (Yuzwa et al. 2008 Nature Chemical Biology 4:483; Yuzwa et al. 2012 Nature Chemical Biology 8:393). The assay was performed in 200 mM Citrate/phosphate buffer supplemented with 0.005% Tween-20. 35.6 g Na2HPO4 2H2O (Sigma, #C0759) were dissolved in 1 L water to obtain a 200 mM solution. 19.2 g citric acid (Merck, #1.06580) was dissolved in 1 L water to obtain a 100 mM solution. pH of the sodiumphosphate solution was adjusted with the citric acid solution to 7.2. The buffer to stop the reaction consists of a 500 mM Carbonate buffer, pH 11.0. 734 mg FM-GlcNAc were dissolved in 5.48 mL DMSO to obtain a 250 mM solution and was stored at −20° C. OGA was used at a 2 nM concentration and FM-GlcNAc at a 100 uM final concentration. Dilutions were prepared in assay buffer.
50 nl of a compound dissolved in DMSO was dispensed on Black Proxiplate™ 384 Plus Assay plates (Perkin Elmer, #6008269) and 3 μl fl-OGA enzyme mix added subsequently. Plates were pre-incubated for 60 min at room temperature and then 2 μl FM-GlcNAc substrate mix added. […] Plates were briefly centrifuged for 1 min at 1000 rpm and incubate at room temperature for 6 h. To stop the reaction 5 μl STOP buffer were added and plates centrifuge again 1 min at 1000 rpm. Fluorescence was quantified in the Thermo Scientific Fluoroskan Ascent or the PerkinElmer EnVision with excitation wavelength 485 nm and emission wavelength 538 nm.
For analysis a best-fit curve is fitted by a minimum sum of squares method. From this an IC50 value and Hill coefficient was obtained. High control (no inhibitor) and low control (saturating concentrations of standard inhibitor) were used to define the minimum and maximum values.

Row | Structure (SMILES) | IC50 [nM]
1 | Cc1cc(C2CCCN(C(C)c3cnc4[nH]c(C)nc4c3)C2)cc(C)n1 (stereo not drawn) [Compound 1] | 316
2 | COc1cc(C2CCCN(C(C)c3cnc4[nH]c(C)nc4c3)C2)cc(C)n1 (stereo not drawn) [Compound 2] | 200
3 | Cc1cc(C2CCCN(C(C)c3cnc4[nH]c(C)nc4c3)C2)cc(C(F)(F)F)n1 (stereo not drawn) [Compound 3] | 316
4 | COc1cc([C@H]2CCCN([C@@H](C)c3cnc4[nH]c(C)nc4c3)C2)cc(C(F)(F)F)n1 [Compound 4b] | 501
5 | Cc1cc(OC2CCCN(C(C)c3ccc4[nH]c(C)nc4n3)C2)cc(C(F)(F)F)n1 (stereo not drawn) [Compound 5] | 794
6 | Cc1cc(C[C@H]2CCCN(Cc3ccc4[nH]c(C)nc4c3)C2)cc(C)n1 [Compound 10] | 1000
7 | Cc1cc(C[C@H]2CCCN(Cc3ccc4cn(C)nc4c3)C2)cc(C)n1 [Compound 17] | 794
8 | COc1cc(O[C@@H]2CCN([C@@H](C)c3ccc4oc(C)nc4n3)C2)cc(C)n1 [Compound 21a] | > 10000
9 | Cc1cc(C[C@H]2CCCN(Cc3ccc4oc(C)nc4n3)C2)cc(C)n1 [Compound 36] | 63.1
10 | COc1cc(OC2CCCN(C(C)c3ccc4sc(C)nc4n3)C2)cc(C)n1 (stereo not drawn) [Compound 41] | 126
11 | Cc1cc(C[C@H]2CCCN(Cc3ccc4nc(C)sc4c3)C2)cc(C)n1 [Compound 53] | 3980
12 | Cc1cc(C[C@H]2CCN(Cc3ccc4nc(C)sc4c3)C2)cc(C)n1 [Compound 55] | > 10000
13 | Cc1cc(C[C@H]2CCN(C(C)c3ccc4nc(C)sc4c3)C2)cc(C)n1 (stereo partly drawn) [Compound 56] | > 10000
14 | Cc1nc2nc(C(C)N3CC[C@H](Cc4cc(F)cc(F)n4)C3)ccc2o1 (stereo partly drawn) [Compound 79] | 158

The remaining lines, values ahead:

Row | IC50 [nM] | Structure (SMILES)
15 | 5010 | Cc1cc(C[C@H]2CCCN([C@@H](C)c3ccc4oc(C)nc4n3)C2)cc(C(F)(F)F)n1 [Compound 24b]
16 | 200 | Cc1cc(C[C@H]2CCN([C@@H](C)c3ccc4oc(C)nc4n3)C2)cc(C)n1 [Compound 27a]
17 | > 10000 | Cc1cc(C[C@H]2CCN([C@H](C)c3ccc4oc(C)nc4n3)C2)cc(C)n1 [Compound 27b]
18 | 501 | Cc1cc(OC[C@@H]2CCCN([C@H](C)c3ccc4sc(C)nc4n3)C2)cc(C)n1 [Compound 45a]
19 | 631 | Cc1cc(OC[C@H]2CCCN([C@@H](C)c3ccc4sc(C)nc4n3)C2)cc(C)n1 [Compound 46a]

Same assay, conditions: FM-GlcNAc substrate, maximal effect, read-out: Enzymatic Emax (%)

Row | Structure (SMILES) | Emax [%]
20 | Cc1cc(C2CCCN(C(C)c3cnc4[nH]c(C)nc4c3)C2)cc(C)n1 (stereo not drawn) [Compound 1] | 98
21 | COc1cc(C2CCCN(C(C)c3cnc4[nH]c(C)nc4c3)C2)cc(C)n1 (stereo not drawn) [Compound 2] | 97
22 | Cc1cc(C2CCCN(C(C)c3cnc4[nH]c(C)nc4c3)C2)cc(C(F)(F)F)n1 (stereo not drawn) [Compound 3] | 96
23 | COc1cc([C@H]2CCCN([C@H](C)c3cnc4[nH]c(C)nc4c3)C2)cc(C(F)(F)F)n1 [Compound 4a] | 50
24 | COc1cc([C@H]2CCCN([C@@H](C)c3cnc4[nH]c(C)nc4c3)C2)cc(C(F)(F)F)n1 [Compound 4b] | 96
25 | Cc1cc(OC2CCCN(C(C)c3ccc4[nH]c(C)nc4n3)C2)cc(C(F)(F)F)n1 (stereo not drawn) [Compound 5] | 94
26 | Cc1cc(C[C@H]2CCCN(Cc3ccc4[nH]c(C)nc4c3)C2)cc(C)n1 [Compound 10] | 89
27 | Cc1cc(C[C@H]2CCCN(Cc3ccc4cn(C)nc4c3)C2)cc(C)n1 [Compound 17] | 90
28 | COc1cc(O[C@@H]2CCN([C@@H](C)c3ccc4oc(C)nc4n3)C2)cc(C)n1 [Compound 21a] | 22
29 | Cc1cc(C[C@H]2CCCN(Cc3ccc4oc(C)nc4n3)C2)cc(C)n1 [Compound 36] | 101
30 | COc1cc(OC2CCCN(C(C)c3ccc4sc(C)nc4n3)C2)cc(C)n1 (stereo not drawn) [Compound 41] | 101
31 | Cc1cc(C[C@H]2CCCN(Cc3ccc4nc(C)sc4c3)C2)cc(C)n1 [Compound 53] | 77
32 | Cc1cc(C[C@H]2CCN(Cc3ccc4nc(C)sc4c3)C2)cc(C)n1 [Compound 55] | 18
33 | Cc1cc(C[C@H]2CCN(C(C)c3ccc4nc(C)sc4c3)C2)cc(C)n1 (stereo partly drawn) [Compound 56] | 41
34 | Cc1nc2nc(C(C)N3CC[C@H](Cc4cc(F)cc(F)n4)C3)ccc2o1 (stereo partly drawn) [Compound 79] | 99

The remaining lines, values ahead:

Row | Emax [%] | Structure (SMILES)
35 | 69 | Cc1cc(C[C@H]2CCCN([C@@H](C)c3ccc4oc(C)nc4n3)C2)cc(C(F)(F)F)n1 [Compound 24b]
36 | 99 | Cc1cc(C[C@H]2CCN([C@@H](C)c3ccc4oc(C)nc4n3)C2)cc(C)n1 [Compound 27a]
37 | 47 | Cc1cc(C[C@H]2CCN([C@H](C)c3ccc4oc(C)nc4n3)C2)cc(C)n1 [Compound 27b]
38 | 95 | Cc1cc(OC[C@@H]2CCCN([C@H](C)c3ccc4sc(C)nc4n3)C2)cc(C)n1 [Compound 45a]
39 | 96 | Cc1cc(OC[C@H]2CCCN([C@@H](C)c3ccc4sc(C)nc4n3)C2)cc(C)n1 [Compound 46a]

Reference: patent US20210115040A1, “OGA INHIBITOR COMPOUNDS” (Janssen Pharmaceutica NV, priority 2018, published 2021)
